# Values of other authors, collected in publication PMC10146264, “Safety, Pharmacokinetic and Pharmacodynamic Evaluation of Teverelix for the Treatment of Hormone-Sensitive Advanced Prostate Cancer: Phase 2 Loading-Dose-Finding Studies” (Medicina, 2023).
# Assays:
# [1] = test system: patients
# Description: In the United States, cardiovascular disease is the main cause of death for prostate cancer patients, and patients with prostate cancer have a higher risk of death from non-cancer causes than the general population. ADT is associated with a number of cardiometabolic side effects including decreased insulin sensitivity, changes in lipid profile, and an increased risk of thromboembolic and cerebrovascular events. The risk seems to be highest in elderly patients who have had recent cardiovascular events before starting ADT [27]. According to a Scientific Statement issued by the Am ...
# [2] = test system: patients with prostate cancer; conditions: in vivo
Compound,"Major cardiovascular events, patients ([1]; phase 3 randomized trial, within the first 12 months of treatment) [%]","Major cardiovascular events, HR [95% CI] GnRH antagonist vs GnRH agonist ([1]; phase 3 trial relugolix vs leuprolide, first 12 months of treatment)",Incidence of injection-site reactions [2]
CONC(=O)Nc1ccc(-c2sc3c(c2CN(C)C)c(=O)n(-c2ccc(OC)nn2)c(=O)n3Cc2c(F)cccc2F)cc1 [relugolix],2.9,0.46,
Degarelix,,,~ 40%
